Test results from patent publication US9035056B2, “Pyrido[4,3-b]indole and pyrido[3,4-b]indole derivatives and methods of use” (Medivation Technologies, Inc., priority 2011, dated 2015).

What was measured:
[1] = target: T1, human recombinant dopamine D2L receptor (Homo sapiens, UniProt P14416); test: Dopamine D2L radioligand binding ([3H]Spiperone); conditions: 1 μM compound; read-out: Percentage inhibition of ligand binding, Dopamine D2L
T1 construct: expressed in transfected cells; host or cells: CHO
Description: To evaluate in radioligand binding assays the activity of compounds of the invention, human recombinant dopamine D2L receptor expressed in Chinese hamster ovary (CHO) cells (Grandy, D. et al, Proc. Natl. Acad. Sci. USA. 86:9762, 1989; Hayes, G. et al, Mol. Endocrinol. 6:920, 1992) in a modified Tris-HCl buffer (50 mM Tris-HCl, pH 7.4, 1.4 mM Ascorbic Acid, 0.001% BSA, 150 mM NaCl) was used. Compounds of the invention were incubated with 0.16 nM [^3H]Spiperone for 120 min at 25° C. Non-specific binding was estimated in the presence of 10 μM Haloperidol. Receptor proteins were filtered and washed, the filters were then counted to determine [^3H]Spiperone specifically bound. Compounds were screened at 1 μM or lower, using 1% DMSO as vehicle. Biochemical assay results are presented as the percent inhibition of specific binding in Table 4.

[2] = target: T2, human recombinant serotonin (5-Hydroxytryptamine) 5-HT5A receptor (Homo sapiens, UniProt P47898); test: Serotonin 5-HT5A radioligand binding ([3H]LSD); conditions: 0.1 μM compound; read-out: Percentage inhibition of ligand binding, Serotonin 5-HT5A
T2 construct: expressed in transfected cells; host or cells: CHO-K1
Description: To evaluate in radioligand binding assays the activity of compounds of the invention, human recombinant serotonin (5-Hydroxytryptamine) 5-HT5A receptor expressed in Chinese hamster ovary (CHO) K1 cells (Rees, S. et al, FEBS Lett. 355:242, 1994) in a modified Tris-HCl buffer (50 mM Tris-HCl, pH 7.4, 10 mM MgCl2, 0.5 mM EDTA) was used. Compounds of the invention were incubated with 1.7 nM [^3H]Lysergic acid diethylamide (LSD) for 60 min at 37° C. Non-specific binding was estimated in the presence of 100 μM Serotonin (5-HT). Receptor proteins were filtered and washed, the filters were counted to determine [^3H]LSD specifically bound. Compounds were screened at 1 μM or lower, using 1% DMSO as vehicle. Biochemical assay results are presented as the percent inhibition of specific binding in Table 5.

[3] = target: T3, human recombinant serotonin (5-Hydroxytryptamine) 5-HT7 receptor (Homo sapiens, UniProt P34969); test: Serotonin 5-HT7 radioligand binding ([3H]LSD); conditions: 0.1 μM compound; read-out: Percentage inhibition of ligand binding, Serotonin 5-HT7
T3 construct: expressed in transfected cells; host or cells: CHO
Description: To evaluate in radioligand binding assays the activity of compounds of the invention, human recombinant serotonin (5-Hydroxytryptamine) 5-HT7 receptor expressed in Chinese hamster ovary (CHO) cells (Roth, B. et al, J. Pharmacol. Exp. Ther. 268:1403, 1994; Shen, Y. et al, J. Biol. Chem. 268:18200, 1993) in a modified Tris-HCl buffer (50 mM Tris-HCl, pH 7.4, 10 mM MgCl2, 0.5 mM EDTA) was used. Compounds of invention were incubated with 5.5 nM [^3H] Lysergic acid diethylamide (LSD) for 2 h at 25° C. Non-specific binding was estimated in the presence of 10 μM Serotonin (5-HT). Receptor proteins were filtered and washed, the filters were then counted to determine [^3H]LSD specifically bound. Compounds were screened at 1 μM or lower, using 1% DMSO as vehicle. Biochemical assay results are presented as the percent inhibition of specific binding in Table 5.

[4] = target: T4, rat adrenergic α1A receptor (Rattus norvegicus, UniProt P43140); test: Adrenergic α1A radioligand binding ([3H]Prazosin); conditions: 0.1 μM compound; read-out: Percentage inhibition of ligand binding, Adrenergic α1A
T4 construct: rat adrenergic α1A receptor obtained from Wistar Rat submaxillary glands; from tissue; host or cells: Wistar rat submaxillary glands
T4 sequence (P43140 1-466): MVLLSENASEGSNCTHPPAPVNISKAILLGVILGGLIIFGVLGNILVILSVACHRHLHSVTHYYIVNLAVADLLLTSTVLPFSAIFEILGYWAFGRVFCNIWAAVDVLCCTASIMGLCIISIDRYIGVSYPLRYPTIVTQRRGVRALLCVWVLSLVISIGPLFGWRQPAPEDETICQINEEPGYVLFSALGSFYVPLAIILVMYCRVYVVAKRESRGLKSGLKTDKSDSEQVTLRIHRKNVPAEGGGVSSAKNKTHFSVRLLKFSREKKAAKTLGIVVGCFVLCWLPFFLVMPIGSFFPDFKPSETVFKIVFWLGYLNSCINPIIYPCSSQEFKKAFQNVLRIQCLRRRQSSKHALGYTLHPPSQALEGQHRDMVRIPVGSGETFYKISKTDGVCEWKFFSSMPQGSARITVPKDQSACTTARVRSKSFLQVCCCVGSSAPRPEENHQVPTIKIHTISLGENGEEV
Description: To evaluate in radioligand binding assays the activity of compounds of the invention, rat adrenergic α1A receptor obtained from Wistar Rat submaxillary glands (Michel, A. et al, Br. J. Pharmacol. 98:883, 1989) in a modified Tris-HCl buffer (50 mM Tris-HCl buffer, pH 7.4, 0.5 mM EDTA) was used. Compounds of the invention were incubated with 0.25 nM [^3H]Prazosin for 60 min at 25° C. Non-specific binding was estimated in the presence of 10 μM phentolamine. Receptor proteins were filtered and washed, the filters were then counted to determine [^3H]Prazosin specifically bound. Compounds of the invention were screened at 1 μM or lower, using 1% DMSO as vehicle. Biochemical assay results are presented as the percent inhibition of specific binding in Table 3.

T3 sequence (P34969 whole entry): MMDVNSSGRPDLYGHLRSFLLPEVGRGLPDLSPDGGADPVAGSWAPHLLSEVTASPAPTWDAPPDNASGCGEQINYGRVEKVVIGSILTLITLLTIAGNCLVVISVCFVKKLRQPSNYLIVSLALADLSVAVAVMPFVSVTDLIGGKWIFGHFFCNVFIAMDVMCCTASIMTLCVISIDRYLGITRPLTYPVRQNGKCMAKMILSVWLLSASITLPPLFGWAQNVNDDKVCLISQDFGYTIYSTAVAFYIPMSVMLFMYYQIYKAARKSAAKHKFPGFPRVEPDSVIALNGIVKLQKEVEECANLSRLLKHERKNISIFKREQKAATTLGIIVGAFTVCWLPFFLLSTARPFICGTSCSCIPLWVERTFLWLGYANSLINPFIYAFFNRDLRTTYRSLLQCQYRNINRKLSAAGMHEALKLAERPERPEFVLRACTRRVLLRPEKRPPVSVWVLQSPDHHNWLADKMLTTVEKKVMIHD
T1 sequence (P14416 whole entry): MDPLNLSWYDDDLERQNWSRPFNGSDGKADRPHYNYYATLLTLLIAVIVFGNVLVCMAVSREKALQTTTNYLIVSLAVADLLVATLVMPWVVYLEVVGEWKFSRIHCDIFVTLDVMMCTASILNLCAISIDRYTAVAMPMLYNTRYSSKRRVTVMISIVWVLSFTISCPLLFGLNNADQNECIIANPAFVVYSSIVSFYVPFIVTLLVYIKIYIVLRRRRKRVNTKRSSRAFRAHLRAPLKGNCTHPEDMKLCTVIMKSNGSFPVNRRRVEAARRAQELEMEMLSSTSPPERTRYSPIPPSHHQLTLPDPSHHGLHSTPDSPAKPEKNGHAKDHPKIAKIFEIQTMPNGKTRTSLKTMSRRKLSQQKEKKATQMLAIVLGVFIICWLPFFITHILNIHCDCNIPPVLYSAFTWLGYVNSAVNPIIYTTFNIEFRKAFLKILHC
T2 sequence (P47898 whole entry): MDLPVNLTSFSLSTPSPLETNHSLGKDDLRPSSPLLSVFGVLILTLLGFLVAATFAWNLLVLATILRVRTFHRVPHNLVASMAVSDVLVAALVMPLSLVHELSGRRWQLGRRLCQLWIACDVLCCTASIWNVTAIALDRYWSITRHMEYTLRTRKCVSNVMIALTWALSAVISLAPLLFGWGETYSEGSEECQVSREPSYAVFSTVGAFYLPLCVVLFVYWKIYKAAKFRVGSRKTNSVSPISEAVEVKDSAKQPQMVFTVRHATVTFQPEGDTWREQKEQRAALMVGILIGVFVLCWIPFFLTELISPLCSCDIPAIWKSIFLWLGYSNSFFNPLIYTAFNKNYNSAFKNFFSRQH

Q: How did the inhibition at 1 µM [1] turn out when `Cc1ccc2c(c1)c1c(n2/C=C2\CCCc3ccccc32)CCN(C)C1` [i-3] was run?
A: The inhibition at 1 µM was 49%.

Q: What about the inhibition at 0.1 µM [2] of the same compound?
A: The inhibition at 0.1 µM was 91%.

Q: What about the inhibition at 0.1 µM [3] of the same compound?
A: Its inhibition at 0.1 µM is 96%.

Q: And the inhibition at 0.1 µM [4]?
A: The inhibition at 0.1 µM was 18%.

Q: `Cc1ccc2c(c1)c1c(n2/C=C2/CCCc3ccccc32)CCN(C)C1` [i-2] was tested. Which inhibition at 1 µM [1] did it give?
A: Its inhibition at 1 µM is 47%.

Q: What about the inhibition at 0.1 µM [2] of the same compound?
A: Its inhibition at 0.1 µM is 101%.

Q: And the inhibition at 0.1 µM [3]?
A: The inhibition at 0.1 µM was 97%.

Q: What about the inhibition at 0.1 µM [4] of the same compound?
A: The inhibition at 0.1 µM was 51%.
